{
  "source": "paper PMC5041104",
  "about": "“Structure-based discovery of two antiviral inhibitors targeting the NS3 helicase of Japanese encephalitis virus” (Scientific Reports, 2016)",
  "key": {"[1]": {"target": "JEV NS3 helicase (ATPase activity) (Japanese encephalitis virus, UniProt P27395)", "sequence (P27395 1684-2123)": "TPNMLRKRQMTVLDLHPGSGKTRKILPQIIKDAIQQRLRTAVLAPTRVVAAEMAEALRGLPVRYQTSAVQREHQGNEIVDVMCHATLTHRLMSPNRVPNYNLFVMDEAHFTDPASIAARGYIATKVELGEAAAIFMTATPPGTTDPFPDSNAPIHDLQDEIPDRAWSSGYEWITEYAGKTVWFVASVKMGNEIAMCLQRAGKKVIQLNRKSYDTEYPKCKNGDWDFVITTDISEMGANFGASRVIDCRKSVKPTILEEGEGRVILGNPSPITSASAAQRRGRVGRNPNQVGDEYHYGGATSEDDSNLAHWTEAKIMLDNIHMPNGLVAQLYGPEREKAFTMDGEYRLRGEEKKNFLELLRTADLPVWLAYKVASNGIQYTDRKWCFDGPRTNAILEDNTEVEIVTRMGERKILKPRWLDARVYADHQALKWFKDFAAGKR", "assay": "Effect on the ATPase activity of NS3 helicase (Kinase-Glo Plus luminescence)", "format": "biochemical", "settings": "200 μM compound, 30 min", "experimental": "The effect of each compound on ATPase activity was tested using a nonradioactive method as previously described. […] The reaction mixture comprised 3 μM of recombinant NS3 helicase and 100 μM ATP in ATPase reaction buffer (20 mM Tris-HCl pH 8.0, 50 mM NaCl, 10 mM MgCl2). Three reactions were conducted for each test. After incubation at 37 °C for 30 min, an equal volume of Kinase-Glo Plus reagent (Promega) was added to each well to quantitate the remaining ATP. The luminescence value of each well was tested by an Infinite 200 PRO multimode reader."}, "[2]": {"target": "JEV NS3 helicase (unwinding activity) (Japanese encephalitis virus, UniProt P27395)", "sequence (P27395 1684-2123)": "as above", "assay": "NS3 helicase unwinding inhibition, fluorescence resonance energy transfer (FRET) assay", "settings": "for highest inhibitory level on NS3 helicase unwinding activity: concentration-dependent inhibition, levels reaching as high as; for inhibition of NS3 unwinding activity in helicase inhibitor screening: screening of 41 selected compounds, FRET assay"}, "JEV [3]": {"tested_on": "JEV", "assay": "Plaque reduction assay in BHK-21 cells", "settings": "48 h, untreated control 3.03 × 10^6 PFU/mL"}, "[4]": {"assay": "Compound cytotoxicity (cell viability)", "settings": "hamster"}, "JEV [5]": {"tested_on": "JEV", "assay": "Antiviral effect by Western blot of JEV envelope (E) protein in BHK-21 cells", "format": "cell-based, Japanese encephalitis virus", "settings": "48 h, normalized to GAPDH; for reduction of expression of E protein: 20 μM, relative to non-compound treated group"}, "JEV [6]": {"tested_on": "JEV", "assay": "Determination of EC50 (CPE inhibition, Celltiter-Glo cell viability of JEV-infected BHK-21 cells)", "settings": "Japanese encephalitis virus, BHK-21, 120 h, read-out: 50% effective concentration (EC50)"}, "JEV [7]": {"tested_on": "JEV", "assay": "Antiviral effect by indirect immunofluorescence assay (IFA) of NS5 in BHK-21 cells", "settings": "48 h, JEV-infected control 84.03%"}, "WNV": {"tested_on": "WNV", "settings": "WNV in cells; read-out: EC50, inhibitory effect on the virus in cells; cited from earlier work"}, "WNV NS2B-NS3 protease": {"target": "WNV NS2B-NS3 protease", "settings": "cited from earlier work"}},
  "data": [
    {"molecule": "CS(=O)(=O)c1ccc2nc(NC(=O)c3ccc(Cn4cc([N+](=O)[O-])cn4)cc3)sc2c1", "note": "[compound 1]", "values": [
      {"measurement": "inhibition of ATPase activity of NS3 helicase", "setting": "[1]", "value": "do not inhibit the ATPase activity"},
      {"measurement": "IC50", "setting": "[2]", "value": 148, "unit": "µM"},
      {"measurement": "highest inhibitory level on NS3 helicase unwinding activity", "setting": "[2]", "value": 79, "unit": "%"},
      {"measurement": "inhibition of NS3 unwinding activity in helicase inhibitor screening", "setting": "[2]", "value": "more than 60%"},
      {"measurement": "average virus titer", "setting": "JEV [3]; 20 μM", "value": "2.7 × 10^4 PFU/mL"},
      {"measurement": "average virus titer", "setting": "JEV [3]; 30 μM", "value": "2.1 × 10^4 PFU/mL"},
      {"measurement": "average virus titer", "setting": "JEV [3]; 40 μM", "value": "8.9 × 10^3 PFU/mL"},
      {"measurement": "CC50 at 120 h", "setting": "[4]", "value": 168, "unit": "µM"},
      {"measurement": "reduction of expression of E protein", "setting": "JEV [5]", "value": 70.1, "unit": "%"},
      {"measurement": "EC50", "setting": "JEV [6]", "value": 25.7, "unit": "µM"},
      {"measurement": "level of JEV-positive cells (NS5 positive)", "setting": "JEV [7]; 5 μM", "value": 58.71, "unit": "%"},
      {"measurement": "level of JEV-positive cells (NS5 positive)", "setting": "JEV [7]; 25 μM", "value": 13.29, "unit": "%"}
    ]},
    {"molecule": "CCCC(=O)Nc1nc2ccc(NC(=S)NC(=O)c3cccs3)cc2s1", "note": "[compound 2]", "values": [
      {"measurement": "inhibition of ATPase activity of NS3 helicase", "setting": "[1]", "value": "do not inhibit the ATPase activity"},
      {"measurement": "IC50", "setting": "[2]", "value": 150, "unit": "µM"},
      {"measurement": "highest inhibitory level on NS3 helicase unwinding activity", "setting": "[2]", "value": 73, "unit": "%"},
      {"measurement": "inhibition of NS3 unwinding activity in helicase inhibitor screening", "setting": "[2]", "value": "more than 60%"},
      {"measurement": "average virus titer", "setting": "JEV [3]; 10 μM", "value": "4.65 × 10^4 PFU/mL"},
      {"measurement": "average virus titer", "setting": "JEV [3]; 20 μM", "value": "3.6 × 10^4 PFU/mL"},
      {"measurement": "average virus titer", "setting": "JEV [3]; 30 μM", "value": "2.6 × 10^4 PFU/mL"},
      {"measurement": "average virus titer", "setting": "JEV [3]; 40 μM", "value": "1.8 × 10^4 PFU/mL"},
      {"measurement": "viability at 120 h, 200 µM", "setting": "[4]", "value": "> 60", "unit": "%"},
      {"measurement": "inhibition of E protein expression", "setting": "JEV [5]; 5 μM", "value": 86.3, "unit": "%"},
      {"measurement": "reduction of expression of E protein", "setting": "JEV [5]", "value": 94.8, "unit": "%"},
      {"measurement": "EC50", "setting": "JEV [6]", "value": 23.5, "unit": "µM"},
      {"measurement": "level of JEV-positive cells (NS5 positive)", "setting": "JEV [7]; 5 μM", "value": 50.40, "unit": "%"},
      {"measurement": "level of JEV-positive cells (NS5 positive)", "setting": "JEV [7]; 25 μM", "value": 10.07, "unit": "%"}
    ]},
    {"molecule": "phenacetyl-KKR-Aldehyde", "values": [
      {"measurement": "EC50", "setting": "WNV", "value": 1.6, "unit": "µM"},
      {"measurement": "Ki", "setting": "WNV NS2B-NS3 protease", "value": 0.009, "unit": "µM"}
    ]}
  ]
}
